Data on 4 molecules can be found in patent EP4183391A1, “PHARMACEUTICAL COMPOSITION AND USE THEREOF” (Shenzhen Salubris Pharmaceuticals Co., Ltd., priority 2020, dated 2022).

Structures can show the parent of a compound that is named as a salt.

One data set relates to male C57BL/6J mice. Nature of the data set: Relieving a cough in mice, concentrated ammonia steam (Example 5). It counts as in vivo. The following applies: 60 min. How it is done: Ammonium Hydroxide, ACS Reagent, 28.0-30.0% NH3, AI LAN (Shanghai) Chemical Technology Co., Ltd., batch no. CEC1070004. Ultrasonic Nebulizer WH-2000, Guangdong Yuehua Medical Equipment Factory Co., Ltd.
88 male C57BL/6J mice, weighing 20-22 g, were purchased from Beijing Vital River Laboratory Animal Technology Co., Ltd.
Mice in each group were administered with 1 dose of the corresponding experimental drugs to be tested in a volume of 10 ml/kg. After 60 min of administration, the mice were placed in an inverted 600 ml beaker filled with concentrated ammonia saturated steam and immediately timed for 10 s, and then the mice were removed and placed in another inverted 600 ml beaker to observe the coughing of the mice and recorded the total coughs within 5 min.
All experimental data are expressed as means. Statistical analysis was carried out using Graphad Prism 5 software. One-way ANOVA test was used for comparison between groups. SNK was used for comparison between groups with equal variance. Dunnett's T3 was used for comparison between groups with unequal variance. P < 0.05 indicated statistical significance.

A short description of data set [1]: Pharmacokinetic experiments in dogs. The following applies: 14 mg/kg single gavage, Day1, analyte deDM in plasma. How it is done:
Reagents: Sodium chloride injection, EDTA-K2, acetonitrile and formic acid were commercially available.
Instrument: AB SCIEX 5500 triple quadrupole mass spectrometer.
18 Beagle dogs, half male and half female, weighing 6 kg-10 kg, were purchased from Jiangsu Yadong Experimental Animal Research Institute Co., Ltd.
After single gavage administration in dogs, about 1 mL of blood was collected with a scalp needle from a vein in the forelimb or hindlimb at 0 min (before administration), 5 min, 15 min, 30 min, 1 h, 2 h, 4 h, 8 h and 24 h in a blood collection tube containing EDTA-K2 anticoagulant and then centrifuged at 4000 rpm for 10 min to separate the plasma which was stored at ≤- 65°C for testing.
The standard curve concentrations of dextromethorphan in plasma were 1 ng/mL, 2 ng/mL, 10 ng/mL, 50 ng/mL, 200 ng/mL, 400 ng/mL, 600 ng/mL and 1000 ng/mL and QC concentrations were 3 ng/mL, 30 ng/mL, 500 ng/mL and 800 ng/mL.

Another data set has as its system male ICR mice. Nature of the data set: Mouse tail suspension model. It counts as in vivo. To be noted: immobility time. The protocol: 110 male ICR mice were accommodated in the experimental environment for 3 days prior to the test, with 10 animals reserved for future use.
According to the experimental design, the mice were randomly grouped according to their body weight at one day before administration.
The time of initiation of administration was defined as 0 min.
The 2 cm tail end of the mouse was attached to a horizontal metal stick so that the mouse was suspended and the immobility time period of the mouse was observed and recorded over a period of 6 min. The last 4 min of immobility time period was recorded by a timer and was used for data analysis.
Excel software was used to collect data. Data were analyzed using Prism (Graphpad software, Inc.) software, in which variance between two groups was analyzed using the t-test method, and one-way ANOVA with additional Dunnett's multiple comparison test was performed among each animal group. p<0.05 is considered as having a significant difference.

For the molecule `[2H]C([2H])([2H])Oc1ccc2c(c1)[C@]13CCCC[C@@H]1[C@H](C2)N(C([2H])([2H])[2H])CC3` [Deuterated dextromethorphan], the Cough inhibition rate% was 11.6% with male C57BL/6J mice (3 mg/kg) and 22.5% in the data set with male C57BL/6J mice (12 mg/kg).
Consider “deuterated dextromethorphan hydrobromide monohydrate [deDM]”, for which the AUClast in data set [1] (Female) is given as 153 h^∗ng/ml; in data set [1] (Male), 383 h^∗ng/ml. Moreover, the Cmax – broadly, the highest concentration seen after dosing – in data set [1] (Female) was 60 ng/mL; in data set [1] (Male), 157 ng/mL. Also, the Inhibition rate in the data set on male ICR mice (10 mg/kg oral) is 5.0%; in the data set on male ICR mice (12 mg/kg oral), 2.1%; in the data set on male ICR mice (15 mg/kg oral), 5.9%; in the data set with male ICR mice (18 mg/kg oral) it was 4.1%.
Turning to `CC(NC(C)(C)C)C(=O)c1cccc(Cl)c1` (stereo not drawn) [Bupropion, 1-(3-chlorophenyl)-2-[(1,1-dimethylethyl)amino]-1-propanone, reference compound], in the data set with male C57BL/6J mice (30 mg/kg), the Cough inhibition rate% amounted to 9.1%.
On to `CC(NC(C)(C)C)C(=O)c1cccc(Cl)c1` (stereo not drawn) [Bup, bupropion hydrochloride, reference compound], for which the Inhibition rate in the data set with male ICR mice (50 mg/kg oral) is 56.00%^∗∗.
